Measured values as given in US20100173837A1, “DOSING FORMS AND REGIMENS COMPRISING 3-[(R)-2-(N,N-DIMETHYLAMINO)ETHYLTHIO-SAR]-4-(GAMMAHYDROXYMETHYLLEUCINE)CYCLOSPORINE” (priority 2009, published 2010).
Converted amounts (≈) assume the structure as drawn. “And” between values parts separate entries of the source, which are not always exact repeats. Equal entries are not always repeated. Where two headings read alike, the source gives them in different places.

Assays:
[1] = system: Con1 (genotype 1b) bi-cistronic subgenomic replicon in Huh-7; assay: anti-HCV activity in Huh-7 subgenomic replicon, luciferase; format: cell-based; details: for EC50 / EC90 / IC50 / IC90: Hepatitis C virus; for EC50: corresponds to IC50 in μM, read-out: mean effective concentration EC50; for EC90: read-out: mean effective concentration EC90
Method: The anti-HCV activity of SCY-635 was assessed in a human hepatoma cell line (Huh-7) that contains a Con1 (genotype 1b) bi-cistronic subgenomic replicon. The replicon contains a stable luciferase reporter gene and three cell culture adaptive mutations. The subgenomic replicon contains the 5′ terminus (which includes the HCV Internal Ribosomal Entry Site and the first few amino acids of the HCV core protein) which drives the production of the neomycin phosphotransferase protein. The EMCV IRES element directs the translation of the second cistronic unit that encodes the non-structural proteins NS3, NS4A, NS4B, NS5A, and NS5B. For comparative purposes HCV RNA replication was assessed by quantifying HCV replicon-derived luciferase activity and by quantifying HCV-specific RNA using reverse transcriptase-real time PCR. Duplicate plates were incubated with various concentrations of SCY-635 and were processed either for luciferase activity or for total RNA extraction at 24, 48, 72 and 120 hours after drug treatment. SCY-635 was tested at twelve half-log dilutions ranging from 0.00016 to 50 μM. Stock solutions of each test article were diluted into culture media and added to the plate. After a 72 hour incubation, cells were processed to determine luciferase luminescence as a measurement of antiviral activity. Three replicates were performed and mean values were calculated.

[2] = cell cytotoxicity on replicon cells (LDH release, ribosomal RNA); details: human, replicon cells (Huh-7 background)
Method: (§1) Cell cytotoxicity was assessed by measuring the release of lactate dehydrogenase from cell membranes and by measuring total ribosomal RNA. […] SCY-635 was assessed for cytotoxicity in primary human hepatocytes. […] SCY-635 was also assessed for cytotoxicity in primary human renal tubular epithelial cells.

replicon cells = assay: as above; details: replicon cells
Method: as §1

in vitro = details: human
Method: as §1

Huh-7 cell line = assay: in vitro; details: Huh-7 cell line
Method: as §1

[3] = system: primary human hepatocytes
Method: as §1

[4] = system: primary human renal tubular epithelial cells
Method: as §1

[5] = system: full length genotype 1b derived replicon in human hepatoma cell line; assay: anti-HCV activity in full length genotype 1b replicon, RT-PCR; format: cell-based; details: 72-hour incubation
Method: (§2) The anti-HCV activity of SCY-635 was also assessed in a human hepatoma cell line that contains a full length genotype 1b derived replicon. Cells were processed following a 72-hour incubation at 37° C. Intracellular RNA from each well was extracted and the level of HCV-specific RNA was determined by reverse transcriptase-real time PCR. Cytotoxic effects were measured by assessing ribosomal RNA as an indication of total cell numbers.

[6] = system: human hepatoma cell line containing full length replicon; assay: cytotoxicity in full length replicon cells (ribosomal RNA); format: cell-based; details: concentrations up to 10 μM, 72-hour incubation
Method: as §2

hepatitis C (subtype 1) = assay: plasma HCV RNA viral load in HCV-infected subjects, 15-day t.i.d. study; format: in vivo, human; details: 15 days, per os
Method: All human subjects were male (n=20); 75% were African American. Average age was 53.0 years. […] Viral load data from the study described in Example 4 above was measured by the quantitative Roche COBAS […] assay. The test measures HCV RNA in International Units (IU) per mL using real-time Polymerase Chain Reaction (RT-PCR) technology. […] All clinical viral load samples were assayed at LabCorp.

[7] = human, in vivo
Method: SCY-635 (given as oral capsules as described in Example 3 above) was examined in a randomized, double-blind, placebo-controlled, multi-dose study to adult volunteers who are chronically infected with hepatitis C (subtype 1). Three cohorts received 100, 200 or 300 milligrams of SCY-635 three times per day (100 mg, 200 mg or 300 mg t.i.d., respectively) per os for 15 consecutive days. The 100 mg t.i.d. cohort was comprised of 7 human subjects (1 placebo and 6 active); the 200 mg t.i.d. cohort was comprised of 6 human subjects (1 placebo and 5 active); and the 300 mg t.i.d. cohort was comprised of 7 human subjects (1 placebo and 6 active).
All human subjects were male (n=20); 75% were African American. Average age was 53.0 years. Average HCV RNA plasma viremia on enrollment was 5,600,000 IU/ml, as measured by the quantitative Roche COBAS taqMan assay. 55% of human subjects were treatment naïve.

[8] = single dose pharmacokinetic study in healthy volunteers; details: human, in vivo, 400 mg single dose (capsules), read-out: Mean SCY-635 Plasma Concentration
Method: Blood samples were collected from human subjects during the 72-hour interval immediately following administration of a single dose of SCY-635. […] Concentrations of SCY-635 in human blood and plasma samples from the study described in this Example were determined using validated high pressure liquid chromatography/tandem mass spectrometric (HPLC-MS/MS) methods with assay ranges of 50 to 5000 ng/mL for whole blood and 15 to 2000 ng/mL for plasma. The table below summarizes the results obtained (“BLOQ” means below the limit of quantitation).

[9] = human, in vivo; remark: listed apart in the source
Excerpt: SCY-635 (given as oral capsules [400 milligram dose] or tablets [500 and 600 milligram doses] as described in Example 3 above) was examined in a randomized, double-blind, placebo-controlled, pharmacokinetic study in normal healthy adult volunteers. Three cohorts received a single dose of either 400, 500 or 600 milligrams of SCY-635. Each cohort was comprised of 8 human subjects (2 placebo and 6 active). Blood samples were collected from human subjects during the 72-hour interval immediately following administration of a single dose of SCY-635.

[10] = 500 mg b.i.d. 14-day pharmacokinetic study in healthy volunteers; details: human, in vivo, 264 h post first dose, read-out: Mean SCY-635 Plasma Concentration
Excerpt: SCY-635 (given as oral tablets as described in Example 3 above) was examined in a double-blind, placebo-controlled, pharmacokinetic study in normal healthy adult volunteers. […] On Day 14, only the morning dose of drug was given and blood samples were collected during the 72-hour interval immediately following administration of the final dose. In addition, blood samples for the measurement of trough drug concentrations were collected from the subjects immediately prior to the administration of SCY-635 on the mornings of Days 2-6 and 8-13. […] Concentrations of SCY-635 in human blood and plasma samples from the two subjects were determined using validated high pressure liquid chromatography/tandem mass spectrometric (HPLC-MS/MS) methods with assay ranges of 50 to 5000 ng/mL for whole blood and 15 to 2000 ng/mL for plasma.

[11] = human, in vivo; remark: listed apart in the source
Excerpt: SCY-635 (given as oral tablets as described in Example 3 above) was examined in a double-blind, placebo-controlled, pharmacokinetic study in normal healthy adult volunteers. […] On Day 14, only the morning dose of drug was given and blood samples were collected during the 72-hour interval immediately following administration of the final dose. In addition, blood samples for the measurement of trough drug concentrations were collected from the subjects immediately prior to the administration of SCY-635 on the mornings of Days 2-6 and 8-13.

[12] = system: HCV-specific RNA replication; details: subgenomic and full length replicon systems; cited from earlier work
cyclophilin A [13] = biological target: T1, cyclophilin A (Homo sapiens, UniProt P62937); details: in vitro studies; cited from earlier work
cyclophilin A [14] = biological target: T1, cyclophilin A; details: in vitro studies; cited from earlier work; remark: listed apart in the source
[15] = Huh-7, by inspection of the curves
[16] = linear regression, 72 hour incubation, luciferase

T1 sequence (P62937 whole entry): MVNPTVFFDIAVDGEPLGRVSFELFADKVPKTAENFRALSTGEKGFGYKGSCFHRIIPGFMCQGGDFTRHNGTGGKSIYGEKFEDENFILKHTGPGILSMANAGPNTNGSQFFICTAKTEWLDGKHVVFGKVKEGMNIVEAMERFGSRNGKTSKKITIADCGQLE

C/C=C/C[C@@H](C)[C@@H](O)[C@H]1C(=O)N[C@@H](CC)C(=O)N(C)[C@H](SCCN(C)C)C(=O)N(C)[C@@H](CC(C)(C)O)C(=O)N[C@@H](C(C)C)C(=O)N(C)[C@@H](CC(C)C)C(=O)N[C@@H](C)C(=O)N[C@H](C)C(=O)N(C)[C@@H](CC(C)C)C(=O)N(C)[C@@H](CC(C)C)C(=O)N(C)[C@@H](C(C)C)C(=O)N1C [SCY-635, 3-[(R)-2-(N,N-dimethylamino)ethylthio-Sar]-4-(gammahydroxymethylleucine)cyclosporine]
EC50 [1, 15]: 0.107 µg/mL (≈ 0.0809 µM) | EC50 ([1]; Huh-7, linear regression): 0.121 µg/mL (≈ 0.0915 µM) | EC90 ([1]; Huh-7, linear regression, corresponds to IC90 in μM): 0.501 µg/mL (≈ 0.379 µM) | IC50 ([1]; Huh-7, by inspection of the curves, 72 hour incubation, luciferase, read-out: mean IC50 (HCV replication)): 81 nM | IC90 ([1]; Huh-7, by inspection of the curves, read-out: mean IC90 (HCV replication)): 333 nM | EC90 [1, 15]: 0.441 µg/mL (≈ 0.334 µM) | IC50 ([1]; Huh-7, linear regression, 72 hour incubation, luciferase, read-out: mean calculated IC50 (HCV replication)): 91 nM | IC90 ([1]; Huh-7, linear regression, 72 hour incubation, luciferase, read-out: mean calculated IC90 (HCV replication)): 397 nM | mean IC75 (HCV replication) ([1]; by inspection of the curves): 165 nM | mean IC95 (HCV replication) ([1]; by inspection of the curves): 410 nM | mean IC98 (HCV replication) ([1]; by inspection of the curves): 0.500 µM | mean effective concentration EC75 ([1]; by inspection of the curves): 0.217 µg/mL | mean effective concentration EC95 ([1]; by inspection of the curves): 0.542 µg/mL | mean effective concentration EC98 ([1]; by inspection of the curves): 661 ng/mL | mean effective concentration EC99 ([1]; by inspection of the curves): 2088 ng/mL | sixth IC value of the list (not named; matches EC99) ([1]; by inspection of the curves): 1.580 µM | mean calculated IC75 (HCV replication) [1, 16]: 200 nM | mean calculated IC95 (HCV replication) [1, 16]: 455 nM | mean effective concentration EC75 ([1]; linear regression, corresponds to IC75 in μM): 0.264 µg/mL | mean effective concentration EC95 ([1]; linear regression, corresponds to IC95 in μM): 0.601 µg/mL | CC50 at 72 h [2]: 14200 nM | selectivity index (CC50/IC50) (replicon cells): 129.0 | cell cytotoxicity (replicon cells; 72-hour incubation, concentrations up to and including 5 μM): No significant cell cytotoxicity | CC50 at 72 h (in vitro): 13700 nM | selectivity index (CC50/IC50) (Huh-7 cell line): 124.5 | 50% inhibitory concentration for cell viability ([3]; human, 48 h): 33 µM | selectivity index ([3]; primary human hepatocytes): approximately 300 | 50% inhibitory concentration for cell viability [4]: 60.6 µM | EC50 ([5]; 3 independent experiments, single values, read-out: EC50 (HCV-specific RNA)): 160 nM and 210 nM | EC90 ([5]; 3 independent experiments, single values, read-out: EC90 (HCV-specific RNA)): 710 nM and 790 nM | EC50 ([5]; Hepatitis C virus, 72 h, 3 independent experiments, single values, read-out: EC50 (HCV-specific RNA)): 130 nM | EC90 ([5]; Hepatitis C virus, 72 h, 3 independent experiments, single values, read-out: EC90 (HCV-specific RNA)): 570 nM | EC50 ([5]; Hepatitis C virus, 72 h, mean of 3 experiments, read-out: mean EC50 (HCV-specific RNA)): 170 nM | EC90 ([5]; Hepatitis C virus, 72 h, mean of 3 experiments, read-out: mean EC90 (HCV-specific RNA)): 690 nM | cell cytotoxicity [6]: absence of significant cell cytotoxicity | mean nadir value of plasma HCV RNA below baseline (hepatitis C (subtype 1); 100 mg t.i.d.): less than 0.5 log10 | median nadir value of plasma HCV RNA below baseline (hepatitis C (subtype 1); 100 mg t.i.d.): less than 0.5 log10 | mean nadir value of plasma HCV RNA below baseline (hepatitis C (subtype 1); 200 mg t.i.d.): less than 0.5 log10 | median nadir value of plasma HCV RNA below baseline (hepatitis C (subtype 1); 200 mg t.i.d.): less than 0.5 log10 | group mean nadir value of plasma HCV RNA below baseline (hepatitis C (subtype 1); 300 mg t.i.d.): 2.33 log10 | group median nadir value of plasma HCV RNA below baseline (hepatitis C (subtype 1); 300 mg t.i.d.): 1.90 log10 | dose limiting toxicity [7]: no evidence of a dose limiting toxicity | concentration at 8 h [8]: 107 ng/mL | dose limiting toxicity [9]: no evidence of a dose limiting toxicity | concentration at 264 h [10]: 411 ng/mL | dose limiting toxicity [11]: no evidence of a dose limiting toxicity | inhibition of HCV-specific RNA replication [12]: potent and selective inhibition | binding to cyclophilin A (cyclophilin A [13]): capable of binding to cyclophilin A | inhibition of peptidyl prolyl isomerase activity of cyclophilin A (cyclophilin A [14]): inhibiting its intrinsic peptidyl prolyl isomerase activity
